Data taken from PubChem BioAssay AID256 (DTP/NCI, 2004).
Several values for one entry are separate records, joined by “and”; a condition that tells them apart may be missing. Identical values can stand only once. Inconclusive results and toxic doses are left out.

Tested on: CD2F1 mice, L1210 leukemia ip, survival T/C
Assay: NCI In Vivo Anticancer Drug Screen. Data for tumor model L1210 Leukemia (intraperitoneal) in CD2F1 (CDF1) mice
Details: higher = longer survival
Outline: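 Mice carrying a transplanted tumor received test compound or vehicle alone. The value is the measurement in the treated group divided by that in the vehicle-treated control group.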

## COc1cccc2c1C(=O)c1c(O)c3c(c(O)c1C2=O)C[C@@](O)(/C(C)=N/NC(=O)c1ccccc1)C[C@@H]3OC1CC(N)C(O)C(C)O1 (stereo not given in full)
endpoint: mean survival time, dose: 0.5 mg/kg/injection, schedule: Q04DX003 (ip), vehicle: water
  T/C: 91 % of control
endpoint: mean survival time, dose: 0.65 mg/kg/injection, schedule: Q01DX009 (ip), vehicle: saline
  T/C: 117 % of control
endpoint: mean survival time, dose: 1.0 mg/kg/injection, schedule: Q01DX009 (ip), vehicle: water
  T/C: 107 % of control
endpoint: mean survival time, dose: 1.0 mg/kg/injection, schedule: Q04DX003 (ip), vehicle: water
  T/C: 91 % of control
endpoint: mean survival time, dose: 1.08 mg/kg/injection, schedule: Q01DX009 (ip), vehicle: saline
  T/C: 120 % of control
endpoint: mean survival time, dose: 2.0 mg/kg/injection, schedule: Q01DX009 (ip), vehicle: water
  T/C: 113 % of control
endpoint: mean survival time, dose: 2.0 mg/kg/injection, schedule: Q04DX003 (ip), vehicle: water
  T/C: 96 % of control
endpoint: mean survival time, dose: 3.0 mg/kg/injection, schedule: Q01DX009 (ip), vehicle: saline
  T/C: 150 % of control
endpoint: mean survival time, dose: 3.0 mg/kg/injection, schedule: Q04DX003 (ip), vehicle: saline
  T/C: 160 % of control
endpoint: mean survival time, dose: 4.0 mg/kg/injection, schedule: Q01DX009 (ip), vehicle: water
  T/C: 120 % of control
endpoint: mean survival time, dose: 4.0 mg/kg/injection, schedule: Q04DX003 (ip), vehicle: water
  T/C: 105 % of control
endpoint: mean survival time, dose: 5.0 mg/kg/injection, schedule: Q04DX003 (ip), vehicle: saline
  T/C: 163 % of control
endpoint: mean survival time, dose: 8.0 mg/kg/injection, schedule: Q01DX009 (ip), vehicle: saline
  T/C: 110 % of control
endpoint: mean survival time, dose: 8.0 mg/kg/injection, schedule: Q04DX003 (ip), vehicle: water
  T/C: 124 % of control
endpoint: mean survival time, dose: 22.2 mg/kg/injection, schedule: Q04DX003 (ip), vehicle: saline
  T/C: 103 % of control
endpoint: median survival time, dose: 0.13 mg/kg/injection, schedule: Q03HX008 (ip), vehicle: water
  T/C: 106 % of control
endpoint: median survival time, dose: 0.13 mg/kg/injection, schedule: Q03HX016 (ip), vehicle: water
  T/C: 97 % of control
endpoint: median survival time, dose: 0.13 mg/kg/injection, schedule: Q03HX024 (ip), vehicle: water
  T/C: 106 % of control
endpoint: median survival time, dose: 0.25 mg/kg/injection, schedule: Q03HX008 (ip), vehicle: water
  T/C: 107 % of control
endpoint: median survival time, dose: 0.25 mg/kg/injection, schedule: Q03HX016 (ip), vehicle: water
  T/C: 104 % of control
endpoint: median survival time, dose: 0.25 mg/kg/injection, schedule: Q03HX024 (ip), vehicle: water
  T/C: 112 % of control
endpoint: median survival time, dose: 0.5 mg/kg/injection, schedule: Q01DX009 (ip), vehicle: water
  T/C: 105 % of control
endpoint: median survival time, dose: 0.5 mg/kg/injection, schedule: Q01DX009 (sc), vehicle: water
  T/C: 101 % of control
endpoint: median survival time, dose: 0.5 mg/kg/injection, schedule: Q03HX008 (ip), vehicle: water
  T/C: 114 % of control
endpoint: median survival time, dose: 0.5 mg/kg/injection, schedule: Q03HX016 (ip), vehicle: water
  T/C: 105 % of control
endpoint: median survival time, dose: 0.5 mg/kg/injection, schedule: Q03HX024 (ip), vehicle: water
  T/C: 115 % of control
endpoint: median survival time, dose: 0.5 mg/kg/injection, schedule: Q04DX003 (ip), vehicle: water
  T/C: 100 % of control
endpoint: median survival time, dose: 1.0 mg/kg/injection, schedule: Q01DX001 (ip), vehicle: water
  T/C: 98 % of control
endpoint: median survival time, dose: 1.0 mg/kg/injection, schedule: Q01DX001 (sc), vehicle: water
  T/C: 96 % of control
endpoint: median survival time, dose: 1.0 mg/kg/injection, schedule: Q01DX009 (ip), vehicle: water
  T/C: 106 % of control
endpoint: median survival time, dose: 1.0 mg/kg/injection, schedule: Q01DX009 (sc), vehicle: water
  T/C: 97 % of control
endpoint: median survival time, dose: 1.0 mg/kg/injection, schedule: Q03HX008 (ip), vehicle: water
  T/C: 118 % of control
endpoint: median survival time, dose: 1.0 mg/kg/injection, schedule: Q03HX016 (ip), vehicle: water
  T/C: 109 % of control
endpoint: median survival time, dose: 1.0 mg/kg/injection, schedule: Q04DX003 (ip), vehicle: water
  T/C: 116 % of control and 111 % of control
endpoint: median survival time, dose: 1.0 mg/kg/injection, schedule: Q08DX002 (ip), vehicle: water
  T/C: 107 % of control
endpoint: median survival time, dose: 2.0 mg/kg/injection, schedule: Q01DX001 (ip), vehicle: water
  T/C: 105 % of control
endpoint: median survival time, dose: 2.0 mg/kg/injection, schedule: Q01DX001 (sc), vehicle: water
  T/C: 102 % of control
endpoint: median survival time, dose: 2.0 mg/kg/injection, schedule: Q01DX009 (ip), vehicle: water
  T/C: 116 % of control
endpoint: median survival time, dose: 2.0 mg/kg/injection, schedule: Q01DX009 (sc), vehicle: water
  T/C: 97 % of control
endpoint: median survival time, dose: 2.0 mg/kg/injection, schedule: Q04DX003 (ip), vehicle: water
  T/C: 103 % of control and 112 % of control
endpoint: median survival time, dose: 2.0 mg/kg/injection, schedule: Q08DX002 (ip), vehicle: water
  T/C: 107 % of control
endpoint: median survival time, dose: 4.0 mg/kg/injection, schedule: Q01DX001 (ip), vehicle: water
  T/C: 113 % of control
endpoint: median survival time, dose: 4.0 mg/kg/injection, schedule: Q01DX001 (sc), vehicle: water
  T/C: 98 % of control
endpoint: median survival time, dose: 4.0 mg/kg/injection, schedule: Q01DX009 (oral), vehicle: water
  T/C: 98 % of control
endpoint: median survival time, dose: 4.0 mg/kg/injection, schedule: Q01DX009 (sc), vehicle: water
  T/C: 97 % of control
endpoint: median survival time, dose: 4.0 mg/kg/injection, schedule: Q03HX016 (ip), vehicle: water
  T/C: 124 % of control
endpoint: median survival time, dose: 4.0 mg/kg/injection, schedule: Q03HX024 (ip), vehicle: water
  T/C: 104 % of control
endpoint: median survival time, dose: 4.0 mg/kg/injection, schedule: Q04DX003 (ip), vehicle: water
  T/C: 124 % of control
endpoint: median survival time, dose: 4.0 mg/kg/injection, schedule: Q08DX002 (ip), vehicle: water
  T/C: 113 % of control
endpoint: median survival time, dose: 8.0 mg/kg/injection, schedule: Q01DX001 (ip), vehicle: water
  T/C: 117 % of control
endpoint: median survival time, dose: 8.0 mg/kg/injection, schedule: Q01DX001 (sc), vehicle: water
  T/C: 98 % of control
endpoint: median survival time, dose: 8.0 mg/kg/injection, schedule: Q01DX009 (oral), vehicle: water
  T/C: 95 % of control
endpoint: median survival time, dose: 8.0 mg/kg/injection, schedule: Q01DX009 (sc), vehicle: water
  T/C: 103 % of control
endpoint: median survival time, dose: 8.0 mg/kg/injection, schedule: Q08DX002 (ip), vehicle: water
  T/C: 124 % of control
endpoint: median survival time, dose: 16.0 mg/kg/injection, schedule: Q01DX001 (oral), vehicle: water
  T/C: 97 % of control
endpoint: median survival time, dose: 16.0 mg/kg/injection, schedule: Q01DX001 (sc), vehicle: water
  T/C: 97 % of control
endpoint: median survival time, dose: 16.0 mg/kg/injection, schedule: Q01DX009 (oral), vehicle: water
  T/C: 97 % of control
endpoint: median survival time, dose: 16.0 mg/kg/injection, schedule: Q01DX009 (sc), vehicle: water
  T/C: 108 % of control
endpoint: median survival time, dose: 16.0 mg/kg/injection, schedule: Q04DX003 (ip), vehicle: water
  T/C: 124 % of control
endpoint: median survival time, dose: 32.0 mg/kg/injection, schedule: Q01DX001 (ip), vehicle: water
  T/C: 155 % of control
endpoint: median survival time, dose: 32.0 mg/kg/injection, schedule: Q01DX001 (oral), vehicle: water
  T/C: 96 % of control
endpoint: median survival time, dose: 32.0 mg/kg/injection, schedule: Q01DX001 (sc), vehicle: water
  T/C: 108 % of control
endpoint: median survival time, dose: 32.0 mg/kg/injection, schedule: Q04DX003 (ip), vehicle: water
  T/C: 106 % of control
endpoint: median survival time, dose: 64.0 mg/kg/injection, schedule: Q01DX001 (oral), vehicle: water
  T/C: 103 % of control
endpoint: median survival time, dose: 128.0 mg/kg/injection, schedule: Q01DX001 (oral), vehicle: water
  T/C: 102 % of control
endpoint: median survival time, dose: 256.0 mg/kg/injection, schedule: Q01DX001 (oral), vehicle: water
  T/C: 102 % of control

## COc1cc(C)c(NC(C)=O)c([N+](=O)[O-])c1
endpoint: mean survival time, dose: 75.0 mg/kg/injection, schedule: Q01DX001 (ip), vehicle: saline
  T/C: 100 % of control
endpoint: mean survival time, dose: 150.0 mg/kg/injection, schedule: Q01DX001 (ip), vehicle: saline
  T/C: 95 % of control
endpoint: mean survival time, dose: 300.0 mg/kg/injection, schedule: Q01DX001 (ip), vehicle: saline
  T/C: 95 % of control

## CC(=O)OCC1OC(Nc2nncs2)C(OC(C)=O)C1OC(C)=O (stereo not given)
endpoint: median survival time, dose: 12.5 mg/kg/injection, schedule: Q01DX005 (ip), vehicle: distilled water + Tween-80
  T/C: 97 % of control
endpoint: median survival time, dose: 25.0 mg/kg/injection, schedule: Q01DX005 (ip), vehicle: distilled water + Tween-80
  T/C: 96 % of control
endpoint: median survival time, dose: 50.0 mg/kg/injection, schedule: Q01DX005 (ip), vehicle: distilled water + Tween-80
  T/C: 102 % of control
endpoint: median survival time, dose: 100.0 mg/kg/injection, schedule: Q01DX005 (ip), vehicle: distilled water + Tween-80
  T/C: 100 % of control
endpoint: median survival time, dose: 200.0 mg/kg/injection, schedule: Q01DX005 (ip), vehicle: distilled water + Tween-80
  T/C: 100 % of control

## COc1ccc(NC(=O)Nc2cc(C)on2)c(Cl)c1
endpoint: mean survival time, dose: 50.0 mg/kg/injection, schedule: Q01DX009 (ip), vehicle: Klucel (hydroxypropylcellulose) (HPC)
  T/C: 91 % of control
endpoint: mean survival time, dose: 100.0 mg/kg/injection, schedule: Q01DX009 (ip), vehicle: Klucel (hydroxypropylcellulose) (HPC)
  T/C: 95 % of control
endpoint: mean survival time, dose: 100.0 mg/kg/injection, schedule: Q04DX003 (ip), vehicle: Klucel (hydroxypropylcellulose) (HPC)
  T/C: 110 % of control
endpoint: mean survival time, dose: 200.0 mg/kg/injection, schedule: Q01DX009 (ip), vehicle: Klucel (hydroxypropylcellulose) (HPC)
  T/C: 98 % of control
endpoint: mean survival time, dose: 200.0 mg/kg/injection, schedule: Q04DX003 (ip), vehicle: Klucel (hydroxypropylcellulose) (HPC)
  T/C: 106 % of control
endpoint: mean survival time, dose: 400.0 mg/kg/injection, schedule: Q04DX003 (ip), vehicle: Klucel (hydroxypropylcellulose) (HPC)
  T/C: 106 % of control
